Results: PubChem BioAssay AID1259407 (Chemical Carcinogenesis Research Information System (CCRIS), 2018)
Calls of active or inactive are those of the source. No rule for the calls is given here.

Tested on: CCRIS mutagenicity, Ames/micronucleus/aberration tests
Assay: CCRIS mutagenicity studies
[1] = Test System: AMES SALMONELLA TYPHIMURIUM, Strain/Indicator: TA98, Metabolic Activation: NONE, Method: STANDARD PLATE
[2] = Test System: AMES SALMONELLA TYPHIMURIUM, Strain/Indicator: TA98, Metabolic Activation: RAT, LIVER, S-9, AROCLOR 1254, Method: STANDARD PLATE
[3] = Test System: AMES SALMONELLA TYPHIMURIUM, Strain/Indicator: TA100, Metabolic Activation: NONE, Method: STANDARD PLATE
[4] = Test System: AMES SALMONELLA TYPHIMURIUM, Strain/Indicator: TA100, Metabolic Activation: RAT, LIVER, S-9, AROCLOR 1254, Method: STANDARD PLATE

Measured: mutagenic call

N#CSCSC#N
inactive: Test System: AMES SALMONELLA TYPHIMURIUM, Strain/Indicator: TA98, Metabolic Activation: HAMSTER, LIVER, S-9, AROCLOR 1254, Method: STANDARD PLATE inactive; negative | [1] inactive; negative | [2] inactive; negative | Test System: AMES SALMONELLA TYPHIMURIUM, Strain/Indicator: TA100, Metabolic Activation: HAMSTER, LIVER, S-9, AROCLOR 1254, Method: STANDARD PLATE inactive; negative | [3] inactive; negative | [4] inactive; negative | Test System: AMES SALMONELLA TYPHIMURIUM, Strain/Indicator: TA1535, Metabolic Activation: HAMSTER, LIVER, S-9, AROCLOR 1254, Method: STANDARD PLATE inactive; negative | Test System: AMES SALMONELLA TYPHIMURIUM, Strain/Indicator: TA1535, Metabolic Activation: NONE, Method: STANDARD PLATE inactive; negative | Test System: AMES SALMONELLA TYPHIMURIUM, Strain/Indicator: TA1535, Metabolic Activation: RAT, LIVER, S-9, AROCLOR 1254, Method: STANDARD PLATE inactive; negative | Test System: AMES SALMONELLA TYPHIMURIUM, Strain/Indicator: TA1537, Metabolic Activation: HAMSTER, LIVER, S-9, AROCLOR 1254, Method: STANDARD PLATE inactive; negative | Test System: AMES SALMONELLA TYPHIMURIUM, Strain/Indicator: TA1537, Metabolic Activation: NONE, Method: STANDARD PLATE inactive; negative | Test System: AMES SALMONELLA TYPHIMURIUM, Strain/Indicator: TA1537, Metabolic Activation: RAT, LIVER, S-9, AROCLOR 1254, Method: STANDARD PLATE inactive; negative | Test System: MOUSE LYMPHOMA, Strain/Indicator: L5178Y (TK+/TK-), Metabolic Activation: RAT, LIVER, S-9, AROCLOR 1254, Method: SUSPENSION/PLATE inactive; negative. reevaluation of results: negative | Test System: Mouse lymphoma, Strain/Indicator: L5178Y (tk+/tk-), Metabolic Activation: None, Method: Suspension/plate inactive; negative

O=[N+]([O-])c1ccc(Cl)c([N+](=O)[O-])c1
active: Test System: AMES SALMONELLA TYPHIMURIUM, Strain/Indicator: TA98(1,8-DNP6), Metabolic Activation: NONE, Method: PREINCUBATION active; positive | Test System: AMES SALMONELLA TYPHIMURIUM, Strain/Indicator: TA98(NR), Metabolic Activation: NONE, Method: PREINCUBATION active; positive | Test System: AMES SALMONELLA TYPHIMURIUM, Strain/Indicator: TA98, Metabolic Activation: NONE, Method: PREINCUBATION active; positive | [1] active; positive | Test System: AMES SALMONELLA TYPHIMURIUM, Strain/Indicator: TA98, Metabolic Activation: RAT LIVER S-9, AROCLOR 1254 (10%), Method: STANDARD PLATE active; positive | Test System: AMES SALMONELLA TYPHIMURIUM, Strain/Indicator: TA98, Metabolic Activation: RAT, LIVER, S-9, KANECHLOR 500, Method: PREINCUBATION active; positive | Test System: AMES SALMONELLA TYPHIMURIUM, Strain/Indicator: TA98NR, Metabolic Activation: NONE, Method: STANDARD PLATE active; positive | Test System: AMES SALMONELLA TYPHIMURIUM, Strain/Indicator: TA100(NR), Metabolic Activation: NONE, Method: PREINCUBATION active; positive | Test System: AMES SALMONELLA TYPHIMURIUM, Strain/Indicator: TA100/GSH-, Metabolic Activation: NONE, Method: PREINCUBATION active; positive | Test System: AMES SALMONELLA TYPHIMURIUM, Strain/Indicator: TA100, Metabolic Activation: NONE, Method: PREINCUBATION active; positive | [3] active; positive | Test System: AMES SALMONELLA TYPHIMURIUM, Strain/Indicator: YG1021, Metabolic Activation: NONE, Method: STANDARD PLATE active; positive | Test System: AMES SALMONELLA TYPHIMURIUM, Strain/Indicator: YG1024, Metabolic Activation: NONE, Method: STANDARD PLATE active; positive | Test System: Ames Salmonella typhimurium, Strain/Indicator: TA98, Metabolic Activation: None, Method: Preincubation active; positive | Test System: Ames Salmonella typhimurium, Strain/Indicator: TA98, Metabolic Activation: Rat, Liver, S9, Sodium phenobarbital and 5,6-benzoflavone (10%), Method: Preincubation active; positive | Test System: Ames Salmonella typhimurium, Strain/Indicator: TA100, Metabolic Activation: None, Method: Preincubation active; positive | Test System: Ames Salmonella typhimurium, Strain/Indicator: TA100, Metabolic Activation: Rat, Liver, S9, Sodium phenobarbital and 5,6-benzoflavone (10%), Method: Preincubation active; positive | Test System: Ames Salmonella typhimurium, Strain/Indicator: TA1535, Metabolic Activation: None, Method: Preincubation active; positive | Test System: Ames Salmonella typhimurium, Strain/Indicator: TA1535, Metabolic Activation: Rat, Liver, S9, Sodium phenobarbital and 5,6-benzoflavone (10%), Method: Preincubation active; positive | Test System: Ames Salmonella typhimurium, Strain/Indicator: TA1537, Metabolic Activation: Rat, Liver, S9, Sodium phenobarbital and 5,6-benzoflavone (10%), Method: Preincubation active; positive
inactive: Test System: AMES SALMONELLA TYPHIMURIUM, Strain/Indicator: TA98NR/1,8-DNP6, Metabolic Activation: NONE, Method: STANDARD PLATE inactive; negative | Test System: AMES SALMONELLA TYPHIMURIUM, Strain/Indicator: TA100, Metabolic Activation: RAT, LIVER, S-9, KANECHLOR 500, Method: PREINCUBATION inactive; negative

Cc1cc(=O)c2c(O)c3c(O)cc(O)c4c5c(O)cc(O)c6c(O)c7c(=O)cc(C)c8c1c2c(c34)c(c65)c78
inactive: [1] inactive; negative | [2] inactive; negative | [3] inactive; negative | [4] inactive; negative
